Earlier results on 1 molecule are cited in patent US8158648B2, “Heteroaryl 11-beta hydroxysteroid dehydrogenase type I inhibitors” (priority 2005, dated 2012).

The data set concerns hepatic glucose production. Particulars: mildly overweight individuals with type 2 diabetes, seven days, versus placebo.

Each structure is given as a SMILES string.

With `CC1(C)[C@@H](OC(=O)CCC(=O)O)CC[C@]2(C)[C@H]3C(=O)C=C4[C@@H]5C[C@@](C)(C(=O)O)CC[C@]5(C)CC[C@@]4(C)[C@]3(C)CC[C@@H]12` [carbenoxolone], the hepatic glucose production result is “decrease in hepatic glucose production”.
